In patent US11571423B2, “Small molecule modulators of human sting” (Curadev Pharma Limited, priority 2017, dated 2023) one finds EC50 data, which are given here for 31 compounds.

As a reminder, the EC50 is the concentration needed to bring the measured effect to its halfway point.

In this experiment the target is hSTING(R232) (Homo sapiens, UniProt Q86WV6, H232R). Briefly: Luciferase reporter assay in HEK293T-hSTING-Luciferase cells, R232 (wild type) human STING. It counts as cell-based. Particulars: 20 hr stimulation, read-out: R232 human activity (EC50 range). The method in brief: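 Clonal HEK293T cells stably expressing STING from a pUNO-1 plasmid plus an ISRE/ISG54-driven secreted luciferase reporter; 5×10^5 cells stimulated with compound for 20 hr. Supernatant luciferase read by luminescence, giving fold-induction over baseline and EC50.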
Chain of hSTING(R232) (Q86WV6 whole entry H232R): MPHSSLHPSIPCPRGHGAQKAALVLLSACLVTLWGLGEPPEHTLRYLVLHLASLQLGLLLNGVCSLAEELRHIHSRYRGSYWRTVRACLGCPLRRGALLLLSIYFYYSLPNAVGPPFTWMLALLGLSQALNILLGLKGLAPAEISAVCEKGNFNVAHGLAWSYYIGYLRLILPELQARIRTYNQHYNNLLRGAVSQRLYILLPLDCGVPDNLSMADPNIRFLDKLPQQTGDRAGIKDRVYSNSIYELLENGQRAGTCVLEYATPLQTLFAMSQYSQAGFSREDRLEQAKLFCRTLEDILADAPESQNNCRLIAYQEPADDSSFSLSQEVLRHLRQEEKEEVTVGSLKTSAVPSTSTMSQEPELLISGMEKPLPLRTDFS
(In a reporter assay the amount or activity of a reporter protein is the signal.)
As for `CC1c2ccc(C(=O)NCc3c(F)cc(F)cc3F)cc2N(Cc2cc(F)cc(F)c2)C(=O)N1C` (stereo not shown) [Example 152, 1-(3,5-difluorobenzyl)-3,4-dimethyl-2-oxo-N-(2,4,6-trifluorobenzyl)-1,2,3,4-tetrahydroquinazoline-7-carboxamide], the EC50 is under 1000 nM.

Regarding `COc1cccc(F)c1CN1C(=O)N(C)C(C)c2ccc(C(=O)NCc3c(F)cc(F)cc3F)cc21` (stereo not shown) [Example 155, 1-(2-fluoro-6-methoxybenzyl)-3,4-dimethyl-2-oxo-N-(2,4,6-trifluorobenzyl)-1,2,3,4-tetrahydroquinazoline-7-carboxamide], the EC50 fell in the range of 1000 to 10000 nM.

On to `CC1c2ccc(C(=O)NCc3c(F)cc(F)cc3F)cc2N(Cc2cc(F)cc(F)c2)C(=O)N1C` (stereo not shown) [Example 156, 1-(3,5-difluorobenzyl)-3,4-dimethyl-2-oxo-N-(2,4,6-trifluorobenzyl)-1,2,3,4-tetrahydroquinazoline-7-carboxamide], for which the EC50 was under 1000 nM.

Consider `CC1c2ccc(C(=O)NCc3c(F)cc(F)cc3F)cc2N(Cc2cc(F)cc(F)c2)C(=O)N1C` (stereo not shown) [Example 157, 1-(3,5-difluorobenzyl)-3,4-dimethyl-2-oxo-N-(2,4,6-trifluorobenzyl)-1,2,3,4-tetrahydroquinazoline-7-carboxamide], for which the EC50 is under 1000 nM.

As to `CC1c2ccc(C(=O)NCc3c(F)cc(F)cc3F)cc2N(Cc2c(F)cccc2Br)C(=O)N1C` (stereo not shown) [Example 158, 1-(2-bromo-6-fluorobenzyl)-3,4-dimethyl-2-oxo-N-(2,4,6-trifluorobenzyl)-1,2,3,4-tetrahydroquinazoline-7-carboxamide], the EC50 is under 1000 nM.

`CC1c2ccc(C(=O)NCc3c(F)cc(F)cc3F)cc2N(Cc2c(F)cccc2Br)C(=O)N1C` (stereo not shown) [Example 159, 1-(2-bromo-6-fluorobenzyl)-3,4-dimethyl-2-oxo-N-(2,4,6-trifluorobenzyl)-1,2,3,4-tetrahydroquinazoline-7-carboxamide]: the EC50 was under 1000 nM.

In the case of `CC1c2ccc(C(=O)NCc3c(F)cc(F)cc3F)cc2N(Cc2c(O)cccc2F)C(=O)N1C` (stereo not shown) [Example 160, 1-(2-fluoro-6-hydroxybenzyl)-3,4-dimethyl-2-oxo-N-(2,4,6-trifluorobenzyl)-1,2,3,4-tetrahydroquinazoline-7-carboxamide], the EC50 is under 1000 nM.

As for `Cc1cccc(F)c1CN1C(=O)N(C)C(C)c2ccc(C(=O)NCc3c(F)cc(F)cc3F)cc21` (stereo not shown) [Example 161, 1-(2-fluoro-6-methylbenzyl)-3,4-dimethyl-2-oxo-N-(2,4,6-trifluorobenzyl)-1,2,3,4-tetrahydroquinazoline-7-carboxamide], the EC50 lay in the range of 1000 to 10000 nM.

As to `Cc1ccc(Cl)c(CN2C(=O)N(C)C(C)c3ccc(C(=O)NCc4c(F)cc(F)cc4F)cc32)c1F` (stereo not shown) [Example 163, 1-(6-chloro-2-fluoro-3-methylbenzyl)-3,4-dimethyl-2-oxo-N-(2,4,6-trifluorobenzyl)-1,2,3,4-tetrahydroquinazoline-7-carboxamide], the EC50 was under 1000 nM.

Consider `Cc1ccc(CN2C(=O)N(C)[C@@H](C)c3ccc(C(=O)NCc4c(F)cc(F)cc4F)cc32)c(F)c1` [Example 170, (S)-1-(2-fluoro-4-methylbenzyl)-3,4-dimethyl-2-oxo-N-(2,4,6-trifluorobenzyl)-1,2,3,4-tetrahydroquinazoline-7-carboxamide], for which the EC50 was under 1000 nM.

Regarding `C[C@@H]1c2ccc(C(=O)NCc3c(F)cc(F)cc3F)cc2N(Cc2c(O)cccc2F)C(=O)N1C` [Example 172, (R)-1-(2-fluoro-6-hydroxybenzyl)-3,4-dimethyl-2-oxo-N-(2,4,6-trifluorobenzyl)-1,2,3,4-tetrahydroquinazoline-7-carboxamide], the EC50 lay in the range of 1000 to 10000 nM.

Consider `CC1c2ccc(C(=O)NCc3c(F)cc(F)cc3F)cc2N(Cc2c(N)cccc2F)C(=O)N1C` (stereo not shown) [Example 173, 1-(2-amino-6-fluorobenzyl)-3,4-dimethyl-2-oxo-N-(2,4,6-trifluorobenzyl)-1,2,3,4-tetrahydroquinazoline-7-carboxamide], for which the EC50 is under 1000 nM.

With `CC1c2ccc(C(=O)NCc3c(F)cc(F)cc3F)cc2N(Cc2ccc(O)cc2F)C(=O)N1C` (stereo not shown) [Example 181, 1-(2-fluoro-4-hydroxybenzyl)-3,4-dimethyl-2-oxo-N-(2,4,6-trifluorobenzyl)-1,2,3,4-tetrahydroquinazoline-7-carboxamide], the EC50 is under 1000 nM.

With `C[C@H]1c2ccc(C(=O)NCc3c(F)cc(F)cc3F)cc2N(Cc2c(F)ccc(C(N)=O)c2Cl)C(=O)N1C` [Example 186, (S)-1-(3-carbamoyl-2-chloro-6-fluorobenzyl)-3,4-dimethyl-2-oxo-N-(2,4,6-trifluorobenzyl)-1,2,3,4-tetrahydroquinazoline-7-carboxamide], the concentration giving a half-maximal response (EC50) was under 1000 nM.

Regarding `CC1NC(=O)N(Cc2c(F)cccc2Cl)c2cc(C(=O)NCc3c(F)cc(F)cc3F)ccc21` (stereo not shown) [Example 189, 1-(2-chloro-6-fluorobenzyl)-4-methyl-2-oxo-N-(2,4,6-trifluorobenzyl)-1,2,3,4-tetrahydroquinazoline-7-carboxamide], the EC50 is 1000 to 10000 nM.

Regarding `CC1c2ccc(C(=O)NCc3c(F)cc(F)cc3F)cc2N(Cc2ccccc2)C(=O)N1C` (stereo not shown) [Example 190, 1-benzyl-3,4-dimethyl-2-oxo-N-(2,4,6-trifluorobenzyl)-1,2,3,4-tetrahydroquinazoline-7-carboxamide], the EC50 was under 1000 nM.

`CC1c2ccc(C(=O)NCc3c(F)cc(F)cc3F)cc2N(Cc2ccccc2)C(=O)N1C` (stereo not shown) [Example 191, 1-benzyl-3,4-dimethyl-2-oxo-N-(2,4,6-trifluorobenzyl)-1,2,3,4-tetrahydroquinazoline-7-carboxamide]: the EC50 is under 1000 nM.

As to `CC1c2ccc(C(=O)NCc3c(F)cc(F)cc3F)cc2N(Cc2ccccc2)C(=O)N1C` (stereo not shown) [Example 192, 1-benzyl-3,4-dimethyl-2-oxo-N-(2,4,6-trifluorobenzyl)-1,2,3,4-tetrahydroquinazoline-7-carboxamide], the EC50 is under 1000 nM.

`CC1c2ccc(C(=O)NCc3c(F)cc(F)cc3F)cc2N(Cc2ccccc2F)C(=O)N1C` (stereo not shown) [Example 194, 1-(2-fluorobenzyl)-3,4-dimethyl-2-oxo-N-(2,4,6-trifluorobenzyl)-1,2,3,4-tetrahydroquinazoline-7-carboxamide]: the EC50 was under 1000 nM.

`CC1c2ccc(C(=O)NCc3c(F)cc(F)cc3F)cc2N(Cc2c(F)cccc2F)C(=O)N1C` (stereo not shown) [Example 195, 1-(2,6-difluorobenzyl)-3,4-dimethyl-2-oxo-N-(2,4,6-trifluorobenzyl)-1,2,3,4-tetrahydroquinazoline-7-carboxamide]: the EC50 is under 1000 nM.

Regarding `CC1c2ccc(C(=O)NCc3ccc(F)cc3F)cc2N(Cc2ccccc2F)C(=O)N1C` (stereo not shown) [Example 197, N-(2,4-difluorobenzyl)-1-(2-fluorobenzyl)-3,4-dimethyl-2-oxo-1,2,3,4-tetrahydroquinazoline-7-carboxamide], the EC50 is under 1000 nM.

In the case of `Cc1cc(CN2C(=O)N(C)C(C)c3ccc(C(=O)NCc4c(F)cc(F)cc4F)cc32)ccn1` (stereo not shown) [Example 198, 3,4-dimethyl-1-((2-methylpyridin-4-yl)methyl)-2-oxo-N-(2,4,6-trifluorobenzyl)-1,2,3,4-tetrahydroquinazoline-7-carboxamide], the EC50 is under 1000 nM.

With `Cc1cc(CN2C(=O)N(C)C(C)c3ccc(C(=O)NCc4c(F)cc(F)cc4F)cc32)on1` (stereo not shown) [Example 199, 3,4-dimethyl-1-((3-methylisoxazol-5-yl)methyl)-2-oxo-N-(2,4,6-triflurobenzyl)-1,2,3,4-tetrahydroquinazoline-7-carboxamide], the EC50 was over 10000 nM.

Turning to `Cc1cc(CN2C(=O)N(C)C(C)c3ccc(C(=O)NCc4c(F)cc(F)cc4F)cc32)no1` (stereo not shown) [Example 200, 3,4-dimethyl-1-((5-methylisoxazol-3-yl)methyl)-2-oxo-N-(2,4,6-trifluorobenzyl)-1,2,3,4-tetrahydroquinazoline-7-carboxamide], the EC50 is over 10000 nM.

For the compound `CC1c2ccc(C(=O)NCc3c(F)cc(F)cc3F)cc2N(Cc2ccccc2F)C(=O)N1C` (stereo not shown) [Example 201, 1-(2-fluorobenzyl)-3,4-dimethyl-2-oxo-N-(2,4,6-trifluorobenzyl)-1,2,3,4-tetrahydroquinazoline-7-carboxamide], the EC50 was under 1000 nM.

Regarding `CC1c2ccc(C(=O)NCc3c(F)cc(F)cc3F)cc2N(Cc2c(F)cccc2F)C(=O)N1C` (stereo not shown) [Example 205, 1-(2,6-difluorobenzyl)-3,4-dimethyl-2-oxo-N-(2,4,6-trifluorobenzyl)-1,2,3,4-tetrahydroquinazoline-7-carboxamide], the EC50 was under 1000 nM.

Take `Cc1cc(CN2C(=O)N(C)C(C)c3ccc(C(=O)NCc4c(F)cc(F)cc4F)cc32)ccn1` (stereo not shown) [Example 207, 3,4-dimethyl-1-((2-methylpyridin-4-yl)methyl)-2-oxo-N-(2,4,6-trifluorobenzyl)-1,2,3,4-tetrahydroquinazoline-7-carboxamide]: the EC50 fell in the range of 1000 to 10000 nM.

Turning to `CC1c2ccc(C(=O)NCc3c(F)cc(F)cc3F)cc2N(Cc2c(F)cc(F)cc2OC(F)(F)F)C(=O)N1C` (stereo not shown) [Example 210, 1-(2,4-difluoro-6-(trifluoromethoxy)benzyl)-3,4-dimethyl-2-oxo-N-(2,4,6-trifluorobenzyl)-1,2,3,4-tetrahydroquinazoline-7-carboxamide], the EC50 is under 1000 nM.

Take `CC1c2ccc(C(=O)NCc3c(F)cc(F)cc3F)cc2N(Cc2ccncc2F)C(=O)N1C` (stereo not shown) [Example 211, 1-((3-fluoropyridin-4-yl)methyl)-3,4-dimethyl-2-oxo-N-(2,4,6-trifluorobenzyl)-1,2,3,4-tetrahydroquinazoline-7-carboxamide]: the EC50 is under 1000 nM.

As for `CC1c2ccc(C(=O)NCc3ccccc3)cc2N(Cc2ccccc2)C(=O)N1C` (stereo not shown) [Example 214, N,1-dibenzyl-3,4-dimethyl-2-oxo-1,2,3,4-tetrahydroquinazoline-7-carboxamide], the EC50 was 1000 to 10000 nM.

For the compound `Cc1cccc(C)c1CN1C(=O)N(C)C(C)c2ccc(C(=O)NCc3c(F)cc(F)cc3F)cc21` (stereo not shown) [Example 215, 1-(2,6-dimethylbenzyl)-3,4-dimethyl-2-oxo-N-(2,4,6-trifluorobenzyl)-1,2,3,4-tetrahydroquinazoline-7-carboxamide], the half-maximal effective concentration (EC50) is under 1000 nM.
